ChEMBL document CHEMBL1914382, “Fragment based discovery of a novel and selective PI3 kinase inhibitor” (Bioorg Med Chem Lett, 2011)

Key:
[1] = Permeability of the compound by PAMPA; type: ADME; conditions: read-out: permeability
[2] = Metabolic stability in rat liver microsomes; type: ADME, Microsome; conditions: read-out: Stability
[3] = Metabolic stability in human liver microsomes; type: ADME, Microsome; conditions: read-out: Stability

- Papp [1]: 13.6 ×10⁻⁶ cm/s
- microsomal CLint [2]: 15 µL/min/mg
- microsomal CLint [3]: 10 µL/min/mg
SMILES: CC(=O)Nc1cn2cc(/C=C3\SC(=O)NC3=O)ccc2n1
